# Measured values: patent publication US10457687B2, “Aminoacid derivatives, a process for their preparation and pharmaceutical compositions containing them” (LES LABORATOIRES SERVIER, priority 2015, dated 2019)
# Target: Mcl-1 protein (Homo sapiens, UniProt Q07820)
# Assay: Inhibition of Mcl-1 by the fluorescence polarisation technique (Method 1 or Method 2)
# Type: binding
# Conditions: for IC50: fluorescence polarisation, Fluorescein labelled ligand, Method 1 (not underlined) or Method 2 (underlined), read-out: IC50 (μM) Mcl-1 FP; for percentage fluorescence polarisation inhibition, Mcl-1 FP: partial inhibitors
# Procedure: The relative binding potency of each compound was determined via Fluorescence Polarisation (FP).
# An 11 point serial dilution of each compound was prepared in DMSO and 2 μl transferred into flat bottomed, low binding, 384-well plate (final DMSO concentration 5%). 38 μl of buffer (10 mM 4-(2-hydroxyethyl)-1-piperazineethanesulfonic acid [HEPES], 150 mM NaCl, 0.05% Tween 20, pH 7.4), containing the Fluorescein labelled ligand (final concentration 1 nM) and Mcl-1 protein (final concentration 5 nM) was then added.
# An 11 point serial dilution of each compound was prepared in DMSO and 2 μl transferred into flat bottomed, low binding, 384-well plate (final DMSO concentration 5%). 38 μl of buffer (20 mM Na2HPO4, 1 mM EDTA, 50 mM NaCl, pH 7.4), containing the Fluorescein labelled ligand (final concentration 10 nM) and Mcl-1 protein (final concentration 10 nM) was then added.
# Sequence of Mcl-1 protein (Q07820 whole entry): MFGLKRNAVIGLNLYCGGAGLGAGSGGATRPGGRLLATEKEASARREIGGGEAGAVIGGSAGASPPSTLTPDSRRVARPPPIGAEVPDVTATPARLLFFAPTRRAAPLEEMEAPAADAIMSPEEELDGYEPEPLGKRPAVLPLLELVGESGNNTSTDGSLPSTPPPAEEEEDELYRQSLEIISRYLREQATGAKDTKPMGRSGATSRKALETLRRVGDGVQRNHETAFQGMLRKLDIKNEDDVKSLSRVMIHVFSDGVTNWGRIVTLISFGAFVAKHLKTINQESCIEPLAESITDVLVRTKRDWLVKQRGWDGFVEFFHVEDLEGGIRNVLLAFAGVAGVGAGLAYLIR
IC50 [µM],SMILES,further results
1.98,"CCOC(=O)C(Cc1ccccc1OCc1ccnc(-c2ccccc2OCCOC)n1)Nc1ncnc2sc(-c3ccc(F)cc3)c(-c3ccc(OCCN(C)C)c(Cl)c3C)c12 [Example 260, ethyl N-[(5Sa)-5-{3-chloro-4-[2-(dimethylamino)ethoxy]-2-methylphenyl}-6-(4-fluorophenyl)thieno[2,3-d]pyrimidin-4-yl]-2-({2-[2-(2-methoxyethoxy)phenyl]pyrimidin-4-yl}methoxy)-D-phenylalaninate]",
0.597,"CCc1sc2ncnc(NC(Cc3cccnc3)C(=O)O)c2c1-c1cccc2ccccc12 [Example 162, N-[6-ethyl-(5Sa)-5-(naphthalen-1-yl)thieno[2,3-d]pyrimidin-4-yl]-3-pyridin-3-yl-D-alanine]",
3.86,"CCc1sc2ncnc(NC(Cc3ccccc3O)C(=O)O)c2c1-c1cccc2ccccc12 [Example 175, N-[6-ethyl-(5Ra)-5-(naphthalen-1-yl)thieno[2,3-d]pyrimidin-4-yl]-2-hydroxy-D-phenylalanine]",
0.036,"CCc1sc2ncnc(NC(Cc3ccccc3)C(=O)O)c2c1-c1ccc(OCCN2CCOCC2)c(Cl)c1C [Example 61, N-((5Sa)-5-{3-chloro-2-methyl-4-[2-(morpholin-4-yl)ethoxy]phenyl}-6-ethylthieno[2,3-d]pyrimidin-4-yl)-D-phenylalanine]",
0.528,"CCc1sc2ncnc(NC(Cc3ccccc3OCc3cccc(Cl)c3)C(=O)O)c2c1-c1cccc(Cl)c1C [Example 150, 2-[(3-chlorobenzyl)oxy]-N-[(5Sa)-5-(3-chloro-2-methylphenyl)-6-ethylthieno[2,3-d]pyrimidin-4-yl]-D-phenylalanine]",
5.44,"CC(=O)c1sc2ncnc(NC(Cc3ccccc3)C(=O)O)c2c1-c1cccc2ccccc12 [Example 200, N-[6-acetyl-(5Ra)-5-(naphthalen-1-yl)thieno[2,3-d]pyrimidin-4-yl]-D-phenylalanine]",
0.104,"CCc1sc2ncnc(NC(Cc3ccccc3OCCCN(C)C)C(=O)O)c2c1-c1cccc(Cl)c1C [Example 158, N-[(5Sa)-5-(3-chloro-2-methylphenyl)-6-ethylthieno[2,3-d]pyrimidin-4-yl]-2-[3-(dimethylamino)propoxy]-D-phenylalanine]",
0.176,"CCc1sc2ncnc(NC(Cc3ccccc3C(N)=O)C(=O)O)c2c1-c1cccc(Cl)c1C [Example 134, 2-carbamoyl-N-[(5Sa)-5-(3-chloro-2-methylphenyl)-6-ethylthieno[2,3-d]pyrimidin-4-yl]-D-phenylalanine]",
0.881,"CCc1sc2ncnc(NC(Cc3cccc(F)c3)C(=O)O)c2c1-c1cccc2ccccc12 [Example 179, N-[6-ethyl-(5Sa)-5-(naphthalen-1-yl)thieno[2,3-d]pyrimidin-4-yl]-3-fluoro-D-phenylalanine]",
0.005,"CC#Cc1sc2ncnc(NC(Cc3ccccc3OCc3ccnc(-c4ccccc4OC)n3)C(=O)O)c2c1-c1ccc(OCCN2CCN(C)CC2)c(Cl)c1C [Example 45, N-[(5Sa)-5-{3-chloro-2-methyl-4-[2-(4-methylpiperazin-1-yl)ethoxy]phenyl}-6-(prop-1-yn-1-yl)thieno[2,3-d]pyrimidin-4-yl]-2-{[2-(2-methoxyphenyl)pyrimidin-4-yl]methoxy}-D-phenylalanine]",
0.227,"CCc1sc2ncnc(N[C@H](CC3CCCCC3)C(=O)O)c2c1-c1cccc2ccccc12 [Example 164, 3-cyclohexyl-N-[6-ethyl-5-(naphthalen-1-yl)thieno[2,3-d]pyrimidin-4-yl]-D-alanine]",
14.3,"CCc1sc2ncnc(NC(Cc3ccccc3)C(=O)O)c2c1-c1cccc2c1c(Cl)cn2CCCN1CCN(C)CC1 [Example 241, N-((5Ra)-5-{3-chloro-1-[3-(4-methylpiperazin-1-yl)propyl]-1H-indol-4-yl}-6-ethyl-thieno[2,3-d]pyrimidin-4-yl)-D-phenylalanine]",
,"CC(O)c1sc2ncnc(N[C@H](Cc3ccccc3)C(=O)O)c2c1-c1cccc2ccccc12 (single isomer, unassigned) [Example 204, N-[6-(1-hydroxyethyl)-5-(naphthalen-1-yl)thieno[2,3-d]pyrimidin-4-yl]-D-phenylalanine]","percentage fluorescence polarisation inhibition, Mcl-1 FP (@ 100 μM test compound, 100 µM): 44.8% @ 100 μM"
,"CCc1sc2ncnc(N[C@H](Cc3ccccc3OCCN(C)C)C(=O)O)c2c1-c1cccc(Cl)c1C [Example 155, N-[(5Ra)-5-(3-chloro-2-methylphenyl)-6-ethylthieno[2,3-d]pyrimidin-4-yl]-2-[2-(dimethylamino)ethoxy]-D-phenylalanine]","percentage fluorescence polarisation inhibition, Mcl-1 FP (@ 50 μM test compound): 63.15% @ 50 μM"
,"CCc1sc2ncnc(N[C@H](Cc3ccccc3)C(=O)O)c2c1-c1ccc(OCCN2CCN(C)CC2)c(Cl)c1C [Example 63, N-((5Ra)-5-{3-chloro-2-methyl-4-[2-(4-methylpiperazin-1-yl)ethoxy]phenyl}-6-ethylthieno[2,3-d]pyrimidin-4-yl)-D-phenylalanine]","percentage fluorescence polarisation inhibition, Mcl-1 FP (@ 10 μM test compound): 12.18% @ 10 μM"
2.53,"CCc1sc2ncnc(NC(Cc3c[nH]c4ccccc34)C(=O)O)c2c1-c1cccc2ccccc12 [Example 185, N-[6-ethyl-(5Sa)-5-(naphthalen-1-yl)thieno[2,3-d]pyrimidin-4-yl]-D-tryptophan]",
2.04,"CCc1sc2ncnc(N[C@H](Cc3ccccc3Cl)C(=O)O)c2c1-c1cccc2ccccc12 [Example 183, 2-chloro-N-[6-ethyl-5-(naphthalen-1-yl)thieno[2,3-d]pyrimidin-4-yl]-D-phenylalanine]",
13.5,"CCc1sc2ncnc(NC(Cc3ccccc3)C(=O)O)c2c1-c1cccc2c1c(Cl)cn2CCN1CCOCC1 [Example 236, N-((5Ra)-5-{3-chloro-1-[2-(morpholin-4-yl)ethyl]-1H-indol-4-yl}-6-ethyl-thieno[2,3-d]pyrimidin-4-yl)-D-phenylalanine]",
,"CCc1sc2ncnc(N[C@H](Cc3c(F)cccc3F)C(=O)O)c2c1-c1cccc(Cl)c1C [Example 130, N-[(5Ra)-5-(3-chloro-2-methylphenyl)-6-ethylthieno[2,3-d]pyrimidin-4-yl]-2,6-difluoro-D-phenylalanine]","percentage fluorescence polarisation inhibition, Mcl-1 FP (@ 50 μM test compound): 67.4% @ 50 μM"
0.019,"CCc1sc2ncnc(NC(Cc3ccccc3)C(=O)O)c2c1-c1ccc(OCCO)c(Cl)c1C [Example 56, N-{(5Sa)-5-[3-chloro-4-(2-hydroxyethoxy)-2-methylphenyl]-6-ethylthieno[2,3-d]pyrimidin-4-yl}-D-phenylalanine]",
0.301,"CCc1sc2ncnc(NC(Cc3ccccc3)C(=O)O)c2c1-c1cc(Cl)c(O)c(Cl)c1C [Example 52, N-[(5Ra)-5-(3,5-dichloro-4-hydroxy-2-methylphenyl)-6-ethylthieno[2,3-d]pyrimidin-4-yl]-D-phenylalanine]",
,"CCc1sc2ncnc(N[C@H](Cc3ccccc3OCCCN(C)C)C(=O)O)c2c1-c1cccc(Cl)c1C [Example 157, N-[(5Ra)-5-(3-chloro-2-methylphenyl)-6-ethylthieno[2,3-d]pyrimidin-4-yl]-2-[3-(dimethylamino)propoxy]-D-phenylalanine]","percentage fluorescence polarisation inhibition, Mcl-1 FP (@ 50 μM test compound): 62.05% @ 50 μM"
39,"CCc1sc2ncnc(N[C@H](Cc3ccccc3)C(=O)O)c2c1-c1cccc2cc[nH]c12 (single isomer, unassigned) [Example 71, N-[6-ethyl-5-(1H-indol-7-yl)thieno[2,3-d]pyrimidin-4-yl]-D-phenylalanine]",
0.223,"CCCc1sc2ncnc(NC(Cc3ccccc3)C(=O)O)c2c1-c1cccc2ccccc12 [Example 252, N-[(5Sa)-5-(naphthalen-1-yl)-6-propylthieno[2,3-d]pyrimidin-4-yl]-D-phenylalanine]",
0.127,"CCc1sc2ncnc(NC(Cc3ccccc3)C(=O)O)c2c1-c1ccc(OCCN(C)C)c(Cl)c1C [Example 59, N-((5Sa)-5-{3-chloro-4-[2-(dimethylamino)ethoxy]-2-methylphenyl}-6-ethylthieno[2,3-d]pyrimidin-4-yl)-L-phenylalanine]",
0.109,"CCc1sc2ncnc(NC(Cc3ccccc3)C(=O)O)c2c1-c1cccc(F)c1C [Example 69, N-[6-ethyl-(5Sa)-5-(3-fluoro-2-methylphenyl)thieno[2,3-d]pyrimidin-4-yl]-D-phenylalanine]",
,"O=C(O)[C@@H](Cc1ccccc1)Nc1ncnc2sc(CO)c(-c3cccc4ccccc34)c12 [Example 197, N-[6-(hydroxymethyl)-(5Ra)-5-(naphthalen-1-yl)thieno[2,3-d]pyrimidin-4-yl]-D-phenylalanine]","percentage fluorescence polarisation inhibition, Mcl-1 FP (@ 200 μM test compound): 54.1% @ 200 μM"
,"CC(C)(O)c1sc2ncnc(NC(Cc3ccccc3)C(=O)O)c2c1-c1cccc2ccccc12 [Example 209, N-[6-(2-hydroxypropan-2-yl)-(5Ra)-5-(naphthalen-1-yl)thieno[2,3-d]pyrimidin-4-yl]-D-phenylalanine]","percentage fluorescence polarisation inhibition, Mcl-1 FP (@ 200 μM test compound): 56.85% @ 200 μM"
28.8,"CCc1sc2ncnc(NC(Cc3ccc(O)cc3)C(=O)O)c2c1-c1cccc2ccccc12 [Example 172, N-[6-ethyl-(5Ra)-5-(naphthalen-1-yl)thieno[2,3-d]pyrimidin-4-yl]-D-tyrosine]",
,"CCc1sc2ncnc(N[C@H](Cc3ccccc3)C(=O)O)c2c1-c1ccnc(Cl)c1C [Example 77, N-[(5Ra)-5-(2-chloro-3-methylpyridin-4-yl)-6-ethylthieno[2,3-d]pyrimidin-4-yl]-D-phenylalanine]","percentage fluorescence polarisation inhibition, Mcl-1 FP (@ 200 μM test compound): 75.45% @ 200 μM"
